Target: T1, TGF-β1-α2M* complex (Homo sapiens, UniProt P01023)
T1 construct: was purified from pooled citrate-treate human plasma; from tissue; host or cells: pooled citrate-treated human plasma
T1 sequence (P01023 24-1474): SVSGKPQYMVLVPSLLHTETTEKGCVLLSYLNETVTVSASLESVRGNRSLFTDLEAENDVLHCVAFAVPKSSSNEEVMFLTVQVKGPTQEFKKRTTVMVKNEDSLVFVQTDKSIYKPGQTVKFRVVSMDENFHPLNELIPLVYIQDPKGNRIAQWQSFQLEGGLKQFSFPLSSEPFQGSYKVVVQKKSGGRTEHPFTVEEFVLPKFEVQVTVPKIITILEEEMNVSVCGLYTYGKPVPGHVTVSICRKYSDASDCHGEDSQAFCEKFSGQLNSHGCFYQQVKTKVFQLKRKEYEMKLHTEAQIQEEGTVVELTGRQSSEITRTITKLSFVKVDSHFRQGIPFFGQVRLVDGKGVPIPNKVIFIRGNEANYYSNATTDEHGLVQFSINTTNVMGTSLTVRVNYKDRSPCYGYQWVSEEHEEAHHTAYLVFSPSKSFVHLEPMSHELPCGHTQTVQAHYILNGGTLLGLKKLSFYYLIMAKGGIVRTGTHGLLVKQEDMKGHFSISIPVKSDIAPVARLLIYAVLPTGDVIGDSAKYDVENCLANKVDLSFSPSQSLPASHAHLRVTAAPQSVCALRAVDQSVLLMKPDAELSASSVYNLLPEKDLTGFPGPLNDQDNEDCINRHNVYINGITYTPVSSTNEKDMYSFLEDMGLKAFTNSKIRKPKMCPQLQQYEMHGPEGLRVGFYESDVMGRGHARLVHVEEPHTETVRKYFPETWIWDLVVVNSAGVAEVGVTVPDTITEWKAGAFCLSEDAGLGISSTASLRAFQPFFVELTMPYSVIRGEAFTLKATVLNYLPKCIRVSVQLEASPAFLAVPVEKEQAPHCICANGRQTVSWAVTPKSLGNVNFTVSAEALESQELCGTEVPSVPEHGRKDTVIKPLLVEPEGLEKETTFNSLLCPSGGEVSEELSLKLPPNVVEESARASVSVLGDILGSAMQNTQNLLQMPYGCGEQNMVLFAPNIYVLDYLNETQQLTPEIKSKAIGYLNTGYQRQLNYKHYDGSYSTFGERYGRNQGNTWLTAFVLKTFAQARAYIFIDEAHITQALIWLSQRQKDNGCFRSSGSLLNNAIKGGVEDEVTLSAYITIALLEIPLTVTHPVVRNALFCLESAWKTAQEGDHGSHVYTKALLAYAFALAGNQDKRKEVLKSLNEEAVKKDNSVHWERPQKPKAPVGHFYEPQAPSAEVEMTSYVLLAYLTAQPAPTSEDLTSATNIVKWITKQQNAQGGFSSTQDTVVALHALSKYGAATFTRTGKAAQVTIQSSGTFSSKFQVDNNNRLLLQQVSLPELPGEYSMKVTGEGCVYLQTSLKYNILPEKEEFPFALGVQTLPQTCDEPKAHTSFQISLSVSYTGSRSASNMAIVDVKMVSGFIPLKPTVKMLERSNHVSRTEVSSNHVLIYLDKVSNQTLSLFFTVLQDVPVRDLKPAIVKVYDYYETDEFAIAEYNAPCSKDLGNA
Experiment: Inhibition of 125I-TGF-β1 and α2M* complex formation (5% non-denaturing PAGE, autoradiography)
Assay type: binding
Description: Saturated and unsaturated fatty acids are present in plasma and tissues (25,26). The effects of various concentrations of saturated fatty acids on the formation of complexes between ^125I-TGF ? β1 and ? 2M* were examined. ^125I-TGF- ? 1 (1 nM) was incubated μg/ml) in the presence of various concentrations of n-caprylic acid ([…]), lauric acid (12 carbon atoms), myristic acid (14 carbon atoms), palmitic acid (16 carbon atoms) and stearic acid (18 carbon atoms). After 30 min at room temperature, the reaction mixture was analyzed by 5% non-denaturing PAGE and autoradiography, a standard method form determining complex formation between TGF-β and α2M* (12). […] At 100 μM, it inhibited 20% of the complex formation between TGF ? β1 and α2M*. Esterification consistently abolished the inhibitory activities of the fatty acids.
Complex formation of ^125I-TGF-β and ? 2M*—The reaction mixture contained 10 μg of . α2M*, ˜1 nM of ^125I-TGF- ? 1, ^125I-TGF ? β2 or ^125I-TGF ? acids (dissolved in 100% ethanol) in 0.05 ml of 50 mM HEPES-NaOH buffer, pH 7.4. The final concentration of ethanol in the reaction mixture was 0.5%. These fatty acids and fatty acid derivatives were soluble under the experimental conditions. After 30 min at room temperature, the complex formation of ^125I-TGF- ? and. α2M* was determined by 5% non-denaturing polyacrylamide gel electrophoresis (PAGE) or by 7.5% SDS-PAGE following cross-linking by 0.6 mM DSS. After electrophoresis, the gel was stained with Coomassie blue and analyzed by autoradiography. The ^125I-TGF- ? - ? 2M* complex which co-migrated with free ? 2M* was quantified using a PhosphoImager (Fuji).

inhibitory activity on complex formation of 125I-TGF-β1 and α2M*: relatively weak inhibitor
inhibition of the complex formation between TGF-β1 and α2M* (at 100 μM): 20%
SMILES: CCCCCCCC(=O)O [n-caprylic acid]
